In patent US20080201790A1, “Method and product for regulating cell responsiveness to external signals” (priority 1993, published 2008):

Tested on: B-Raf
Experiment: Raf activation assay in L929 cells, B-Raf
Format: cell-based, murine
Method: Cell lines and culture. L929 cells (ATCC CCL1 were maintained in Dulbecco's modified Eagle's medium with 5% newborn calf serum and 5% bovine calf serum (BCS) supplemented with 100 ug/ml streptomycin and 100 U/ml penicillin. The cells were grown in 10 cm dishes at 37° C. in 7.5% CO2. Cells were made quiescent where indicated by incubation in Dulbecco's modified Eagle's medium and 0.1% bovine serum albumin for 24 h. Recombinant murine TNFα and recombinant human bFGF (147aa) were from R&D Systems, Minneapolis, Minn. Cells were pretreated where indicated with the MEK-1 inhibitor PD#098059 (Parke-Davis Pharmaceutical Corp. Ann Arbor, Mich.) for 1 h at 37° C. Cells were stimulated by incubation with the indicated cytokine or growth factor for various times at 37° C. […] JNK activity was measured using a solid state kinase assay in which glutathione S-transferase-c-Jun (1-79) (GST-JUN) cound to glutathione-Sepharose 4B beads was used to affinity purify JNK and then JNK activity was measured in an in vitro kinase assay using the sepharose bound GST-Jun as a substrate (Hibi, M., et al. (1993) Genes & Development 7:2135-2148). […] MAPK Assay MAPK activity was measured exactly as described previously (Gardner, A. M., et al. (1994) Meth. Enzymol. 238:258-270) with the exception that MonoQ FPLC fractionation was replaced by step elution from a DEAE-Sephacel column using 0.5 M NaCl in loading buffer. […]

| Substance | activation of B-Raf (phosphorylation of kinase-inactive MEK-1) |
| --- | --- |
| bFGF: recombinant human bFGF (147aa), basic fibroblast growth factor | activation of both B-Raf and C-Raf |
| TNFα | does not significantly activate either isoform of Raf |
